Results on eleven compounds are retold here after US20200199523A1, “MEDIA FOR MICROORGANISM CULTURE AND RELATED COMPOSITIONS AND METHODS” (Massachusetts Institute of Technology, priority 2017, published 2020).

Assay [1] concerns wildtype Pichia pastoris. In words: Batch cultivation growth (optical density, growth rate) in microtiter plates and shake flasks. Type of assay: cell-based, Komagataella phaffii. To be noted: for Effect of supplement on growth rate: nutrient screening in defined media; for Growth rate μ in supplemented defined media: nutrient screening, supplement added to defined media; for Effect on growth rate of reducing the element's concentration by 50%: basal salts medium (FIG. 2A). Here is the method:
Batch cultivations were conducted at two scales: microtiter plates and shake flasks. Microtiter plates with 24 wells and pyramidal bottoms were purchased from Axygen. Each well had 10 mL total volume and cultivations used a 3 mL working volume. Plates were incubated in a Liconic LPX44 shaker at 600 rpm. Temperature was not controlled but remained at room temperature, between 21 and 24° C. […] The shake rate was set to 300 rpm and the temperature was controlled at 25° C. […]
All chemicals used in media formulations were purchased from Sigma. Complex media was purchased from Teknova. […] Glycerol was added at a starting concentration of 1% by volume. Media was autoclaved and filtered through a […] bottletop filter before use. PTM1 salts were added after filtration to avoid loss of trace elements through precipitation.
Biomass was measured by optical density. Shake flask samples were measured on a Genesys 10 Bio spectrophotometer. Microtiter plate samples were measured using a Tecan Infinite M200 Pro plate reader and converted to the same scale as the spectrophotometer samples using a calibration curve. Growth rates were calculated by linear regression between the natural logarithm of the optical density and the cultivation time in hours. The regression was run on time points during the exponential growth phase unless otherwise specified.

Assay [2] relates to P. pastoris strains expressing hGH, G-CSF, IFN. In words: Amino acid supplementation of defined media: recombinant protein expression (GXII, SDS-PAGE, ELISA). Type of assay: cell-based. To be noted: alone or with other amino acids, IFN (FIG. 10-13). On the technique in general: ELISA stands for enzyme-linked immunosorbent assay.
Experimental: Here, a study is presented of the impact of adding specific amino acids on recombinant protein titers. To uncover a general formulation, three P. pastoris strains were studied, each expressing a different heterologous protein.
Expression of three recombinant proteins, hGH, G-CSF, and IFN, by P. pastoris grown in media with different individual amino acids, 12.5 mM each. Protein concentrations measured by GXII, samples taken 24 hours after methanol induction (FIG. 10).
(FIG. 11). hGH expression by P. pastoris grown in media with different combinations of amino acids, each 12.5 mM total, based on initial individual amino acid screenings is shown. hGH concentrations were measured by GXII, samples taken 24 hours after methanol induction.
In FIG. 12, the effect of Asparagine, Glutamine, and Arginine on protein expression is examined. The starred media conditions are as follows; Glutamine, Arginine, Glutamine+Arginine (RDM), Asparagine, Glutamine+Asparagine, and all 20 amino acids. In all media conditions, total amino acid concentration is normalized to 25 mM.
hGH production was measured in media containing individual or combinations of amino acids. The total concentration in (mM) of amino acids was 12.5, 25, or 50 mM. The results were measured by ELISA, and each value is the average of three technical replicates.
Assay [3] deals with P. pastoris gene expression. Briefly: RNA-Seq gene expression and ssGSEA at stages of perfusion cultivation. Format: cell-based, K. phaffii. How it is done:
To study gene expression under perfusion, seven cultivations were conducted (FIG. 14B). The production medium contained 1.5% v/v methanol. For four of the bioreactors (labeled 1, 3, 5A, 6A), the cultures were induced immediately after the DO spike. For the other three reactors (labeled 4, 5, 6), glycerol feed was maintained after the DO spike for 4 hours and then the cultures were induced with methanol. There were no significant differences between the biomass, hGH titers, or transcriptomic data between the two conditions (FIG. 15), so they were treated as biological replicates for RNA-Seq analysis.
RNA was isolated from samples taken at six time points during the cultivation (FIG. 14B). Samples were taken from all reactors after one day of exponential growth on glycerol (G1) and immediately after the DO spike (G2). […]
RNA was extracted using the Qiagen RNeasy kit (cat. no. 74104). […] All libraries were sequenced on the Illumina NextSeq platform to generate 75-nucleotide paired-end reads at a read depth of at least 3 million reads per sample. The reads were aligned to the previously reported genome sequence for this strain (Love et al., 2016) using RSEM version 1.2.15 with bowtie2 version 2.2.3. The reads were also aligned to the sequence for hGH using BWA (version 0.7.12). […]

Assay [4] relates to K. phaffii strain modified to express human growth hormone (hGH). In words: Perfusion cultivation: biomass (wet cell weight), hGH titer, productivity. Type of assay: cell-based. How it is done:
Experiments were conducted using a K. phaffii strain modified to express human growth hormone (hGH) under the control of the AOX1 promoter. For biomass accumulation, cells were grown in medium containing per liter: 40 mL glycerol, 12 g KH2PO4, 4.7 g MgSO4.7H2O, 0.36 g CaCl2.2H2O, 4.96 g (NH4)2SO4, 1.46 g L-glutamine, 1.74 g L-arginine, 3.3 mL of vitamin solution, 10 mL of lipids solution, and 4.35 mL of PTM1 salts (Amresco J241). For protein production, cells were grown in medium containing per liter: 12 g KH2PO4, 4.7 g MgSO4.7H2O, 0.36 g CaCl2.2H2O, 13.21 g (NH4)2SO4, 2.92 g L-glutamine, 3.3 mL of vitamin solution, 10 mL of lipids solution, and 4.35 mL of PTM1 salts (Amresco J241). Both media were adjusted to pH 6.5 using 5M KOH. The vitamin solution consisted of per liter: 7.5 g myo-inositol, 0.3 g thiamine HCl, 0.3 g calcium pantothenate, 0.3 g nicotinic acid, 0.3 g pyroxidine HCl, 0.015 g biotin, and 0.06 g para-aminobenzoic acid. The lipids solution consisted of per liter: 2 mg arachidonic acid, 10 mg linoleic acid, 10 mg linolenic acid, 10 mg myristic acid, 10 mg oleic acid, 10 mg palmitic acid, 10 mg stearic acid, 2.2 g Tween-80, 70 mg tocopherol acetate, and 100 g of Pluronic F-68. All chemicals were purchased from Sigma. The medium was filtered before use.
Cultivations were conducted in 0.5 L Infors HT bioreactors adapted for operation in perfusion mode. Cultures were inoculated directly from a frozen cell stock into 0.44 L of medium. Cells were grown for approximately 32 hours in perfusion mode with medium containing glycerol fed at a rate of 0.5 mL/minute. […] The cultures were induced by switching the feed to production medium containing methanol, which was also fed at 0.5 mL/minute. Bioreactor temperature was automatically controlled at 25° C. The pH was controlled at 6.5 using 5M KOH.
For the studies of higher methanol feed rate, two cultivations were conducted. The production medium contained 15% v/v methanol. All other fermentation conditions were as described above.
Biomass was measured by wet cell weight. Five hundred microliters of sample were spun in a Costar Spin-X centrifuge filter tube for 10 minutes at 1500 g and the pellet was weighed. hGH concentrations in the supernatants were quantified by RPLC and by gel electrophoresis (Perkin Elmer GXII). Concentrations estimated by the two methods were highly consistent (slope=0.98, R^2=0.95).
Cell-specific productivity was calculated according to the following system of equations (Amos Lu, unpublished): […]
where qp is the cell-specific productivity, μ is the growth rate, F is the perfusion rate, X is the biomass concentration, and P is the protein titer.

Setting [5] is: perfusion, 15% v/v vs 1.5% v/v methanol.

`C[C@H](N)C(=O)O` [Alanine]: in assay [1], the “Effect of supplement on growth rate” value was “did not” and the “Growth rate μ in supplemented defined media” value (“Growth rate μ” below) came out at 0.195 h⁻¹.

Turning to `N=C(N)NCCC[C@H](N)C(=O)O` [Arginine], in assay [2], the “Effect on protein production” value is “increases protein production”. In assay [1], the “Effect of supplement on growth rate” value is “significant benefit” and the “Growth rate μ” value came out at 0.202 h⁻¹.

On to `NC(=O)CC[C@H](N)C(=O)O` [Glutamine], for which the “Effect on protein production” value in assay [2] was “increases protein production”. For the same compound, the “Growth rate μ” value in assay [1] worked out at 0.217 h⁻¹.

In the case of `CC(O)C(=O)O` (stereo not shown) [Lactate], the “Growth rate μ” value in assay [1] amounted to 0.186 h⁻¹.

For the compound `NCCCC[C@H](N)C(=O)O` [Lysine], in assay [1], the “Effect of supplement on growth rate” value was “did not” and the “Growth rate μ” value is 0.196 h⁻¹.

On to `OC[C@H]1O[C@H](O[C@H]2O[C@H](CO)[C@@H](O)[C@H](O)[C@H]2O)[C@H](O)[C@@H](O)[C@@H]1O` [Trehalose], for which the “Growth rate μ” value in assay [1] was 0.193 h⁻¹.

Regarding `N` [ammonium], the “Effect on growth rate of reducing the element's concentration by 50%” value in assay [1] is recorded as “significantly improved the growth rate”. The “Concentration at which it became limiting for growth” value in assay [1] (basal salts medium (FIG. 2B)) was determined as 12.5 mM.

Regarding `NC(=O)C[C@H](N)C(=O)O` [asparagine], the “Effect on protein production” value in assay [2] is “increases protein production”.

With `CO` [methanol], the “Increase in expression of genes involved in methanol metabolism vs glycerol” value in assay [3] (first 4 hours after induction) is given as 35 fold. Moreover, the “Increase in expression of genes involved in methanol metabolism vs glycerol” value in assay [3] (later in methanol feeding) was found to be 100 fold. Also, in assay [4] (beginning of the cultivation (FIG. 23C)), the “Cell-specific productivity relative to low-feed case” value is reported as “double”. The Biomass concentration in assay [4] (perfusion, 15% v/v methanol, day 6 of production) came out at 530 g/L WCW. The compound also showed a hGH titer in assay [4] (perfusion, 15% v/v methanol, end of the cultivation) of 2 g/L. Moreover, in assay [4] (setting [5]), the “Cell density relative to low-methanol feeding experiments” value was “over four times greater” and the “hGH titers relative to lower methanol feed rate” value is given as “over six times higher”. The compound also yielded an Average growth rate in assay [4] (perfusion, methanol feed rate increased by a factor of ten (15% v/v)) of 0.01 h⁻¹. For the same compound, the “Volumetric productivity relative to lower methanol feed” value in assay [4] (perfusion, on average (FIG. 23D)) is 3-4 times.

`S1SSSSSSS1` [sulfur]: the “Effect on growth rate of reducing the element's concentration by 50%” value in assay [1] is listed as “no significant effect”.

Turning to phosphate, the “Effect on growth rate of reducing the element's concentration by 50%” value in assay [1] was “no significant effect”.
